According to PubChem BioAssay (NCI):
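1) Cells in 96-well plates. 2) Compound, 48 h, 5 concentrations. 3) Linear interpolation between surrounding doses. 4) Unreached endpoint = highest concentration. GI50: concentration for 50% inhibition of growth. TGI denotes the concentration required for complete inhibition of growth.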

Key:
Experiment in all cases: inhibition of tumour cell growth, NCI panel, 48 h
786-0 renal = test system: 786-0 renal
A498 renal = test system: A498 renal
A549 NSCLC = test system: A549 NSCLC
ACHN renal = test system: ACHN renal
BT-549 breast = test system: BT-549 breast
CAKI-1 renal = test system: CAKI-1 renal
CCRF-CEM leukemia = test system: CCRF-CEM leukemia
COLO 205 colon = test system: COLO 205 colon
DU-145 prostate = test system: DU-145 prostate
EKVX NSCLC = test system: EKVX NSCLC
HCC-2998 colon = test system: HCC-2998 colon
HCT-116 colon = test system: HCT-116 colon
HCT-15 colon = test system: HCT-15 colon
HL-60(TB) leukemia = test system: HL-60(TB) leukemia
HOP-62 NSCLC = test system: HOP-62 NSCLC
HOP-92 NSCLC = test system: HOP-92 NSCLC
HS 578T breast = test system: HS 578T breast
HT29 colon = test system: HT29 colon
IGROV1 ovarian = test system: IGROV1 ovarian
K-562 leukemia = test system: K-562 leukemia
KM12 colon = test system: KM12 colon
LOX IMVI melanoma = test system: LOX IMVI melanoma
M14 melanoma = test system: M14 melanoma
MALME-3M melanoma = test system: MALME-3M melanoma
MCF7 breast = test system: MCF7 breast
MDA-MB-231 breast = test system: MDA-MB-231 breast
MDA-MB-435 = test system: MDA-MB-435
MOLT-4 leukemia = test system: MOLT-4 leukemia
NCI-H226 lung = test system: NCI-H226 lung
NCI-H23 lung = test system: NCI-H23 lung
NCI-H460 lung = test system: NCI-H460 lung
NCI-H522 lung = test system: NCI-H522 lung
NCI/ADR-RES ovarian = test system: NCI/ADR-RES ovarian
OVCAR-3 ovarian = test system: OVCAR-3 ovarian
OVCAR-4 ovarian = test system: OVCAR-4 ovarian
OVCAR-5 ovarian = test system: OVCAR-5 ovarian
OVCAR-8 ovarian = test system: OVCAR-8 ovarian
PC-3 prostate = test system: PC-3 prostate
RPMI-8226 leukemia = test system: RPMI-8226 leukemia
RXF 393 renal = test system: RXF 393 renal
SF-268 CNS = test system: SF-268 CNS
SF-295 CNS = test system: SF-295 CNS
SF-539 CNS = test system: SF-539 CNS
SK-MEL-2 melanoma = test system: SK-MEL-2 melanoma
SK-MEL-28 melanoma = test system: SK-MEL-28 melanoma
SK-MEL-5 melanoma = test system: SK-MEL-5 melanoma
SK-OV-3 ovarian = test system: SK-OV-3 ovarian
SN12C renal = test system: SN12C renal
SNB-19 CNS = test system: SNB-19 CNS
SNB-75 CNS = test system: SNB-75 CNS
SR leukemia = test system: SR leukemia
SW-620 colon = test system: SW-620 colon
T-47D breast = test system: T-47D breast
TK-10 renal = test system: TK-10 renal
U251 CNS = test system: U251 CNS
UACC-257 melanoma = test system: UACC-257 melanoma
UACC-62 melanoma = test system: UACC-62 melanoma
UO-31 renal = test system: UO-31 renal

Oc1ccc(OCCOc2ccc(O)cc2)cc1
GI50 (786-0 renal): 3.26 µM | TGI (786-0 renal): > 100 µM | GI50 (A498 renal): 3.17 µM | TGI (A498 renal): > 100 µM | GI50 (A549 NSCLC): 3.5 µM | TGI (A549 NSCLC): > 100 µM | GI50 (ACHN renal): 0.964 µM | TGI (ACHN renal): > 100 µM | GI50 (BT-549 breast): 8.08 µM | TGI (BT-549 breast): > 100 µM | GI50 (CAKI-1 renal): 0.987 µM | TGI (CAKI-1 renal): 20.6 µM | GI50 (CCRF-CEM leukemia): 2.27 µM | TGI (CCRF-CEM leukemia): > 100 µM | GI50 (COLO 205 colon): 21.3 µM | TGI (COLO 205 colon): 60.6 µM | GI50 (DU-145 prostate): 2.8 µM | TGI (DU-145 prostate): > 100 µM | GI50 (EKVX NSCLC): 11.2 µM | TGI (EKVX NSCLC): > 100 µM | GI50 (HCC-2998 colon): 3.36 µM | TGI (HCC-2998 colon): 95.9 µM | GI50 (HCT-116 colon): 6.24 µM | TGI (HCT-116 colon): > 100 µM | GI50 (HCT-15 colon): 8.55 µM | TGI (HCT-15 colon): > 100 µM | GI50 (HL-60(TB) leukemia): 5.22 µM | TGI (HL-60(TB) leukemia): > 100 µM | GI50 (HOP-62 NSCLC): 8.97 µM | TGI (HOP-62 NSCLC): > 100 µM | GI50 (HOP-92 NSCLC): 3.65 µM | TGI (HOP-92 NSCLC): > 100 µM | GI50 (HS 578T breast): > 100 µM | TGI (HS 578T breast): > 100 µM | GI50 (HT29 colon): 12.7 µM | TGI (HT29 colon): > 100 µM | GI50 (IGROV1 ovarian): 5.94 µM | TGI (IGROV1 ovarian): > 100 µM | GI50 (K-562 leukemia): 3.08 µM | TGI (K-562 leukemia): > 100 µM | GI50 (KM12 colon): 2.26 µM | TGI (KM12 colon): > 100 µM | GI50 (LOX IMVI melanoma): 1.24 µM | TGI (LOX IMVI melanoma): > 100 µM | GI50 (M14 melanoma): 3.03 µM | TGI (M14 melanoma): 23.5 µM | GI50 (MALME-3M melanoma): 3.69 µM | TGI (MALME-3M melanoma): > 100 µM | GI50 (MCF7 breast): 4.77 µM | TGI (MCF7 breast): > 100 µM | GI50 (MDA-MB-231 breast): 0.414 µM | TGI (MDA-MB-231 breast): > 100 µM | GI50 (MDA-MB-435): 3.22 µM | TGI (MDA-MB-435): > 100 µM | GI50 (MOLT-4 leukemia): 8.82 µM | TGI (MOLT-4 leukemia): > 100 µM | GI50 (NCI-H226 lung): 4.98 µM | TGI (NCI-H226 lung): > 100 µM | GI50 (NCI-H23 lung): 4.5 µM | TGI (NCI-H23 lung): > 100 µM | GI50 (NCI-H460 lung): 3.57 µM | TGI (NCI-H460 lung): > 100 µM | GI50 (NCI-H522 lung): 1.72 µM | TGI (NCI-H522 lung): 55.9 µM | GI50 (NCI/ADR-RES ovarian): 3.41 µM | TGI (NCI/ADR-RES ovarian): > 100 µM | GI50 (OVCAR-3 ovarian): 5.67 µM | TGI (OVCAR-3 ovarian): > 100 µM | GI50 (OVCAR-4 ovarian): > 100 µM | TGI (OVCAR-4 ovarian): > 100 µM | GI50 (OVCAR-5 ovarian): 10.4 µM | TGI (OVCAR-5 ovarian): > 100 µM | GI50 (OVCAR-8 ovarian): 3.37 µM | TGI (OVCAR-8 ovarian): > 100 µM | GI50 (PC-3 prostate): 2.75 µM | TGI (PC-3 prostate): > 100 µM | GI50 (RPMI-8226 leukemia): 9.24 µM | TGI (RPMI-8226 leukemia): > 100 µM | GI50 (RXF 393 renal): 6.18 µM | TGI (RXF 393 renal): > 100 µM | GI50 (SF-268 CNS): 3.94 µM | TGI (SF-268 CNS): > 100 µM | GI50 (SF-295 CNS): 2.36 µM | TGI (SF-295 CNS): 16.6 µM | GI50 (SF-539 CNS): 2.2 µM | TGI (SF-539 CNS): 28.2 µM | GI50 (SK-MEL-2 melanoma): 8.26 µM | TGI (SK-MEL-2 melanoma): 82.6 µM | GI50 (SK-MEL-28 melanoma): 88.9 µM | TGI (SK-MEL-28 melanoma): > 100 µM | GI50 (SK-MEL-5 melanoma): 1.5 µM | TGI (SK-MEL-5 melanoma): 4.36 µM | GI50 (SK-OV-3 ovarian): 99.2 µM | TGI (SK-OV-3 ovarian): > 100 µM | GI50 (SN12C renal): 5.72 µM | TGI (SN12C renal): > 100 µM | GI50 (SNB-19 CNS): 27.8 µM | TGI (SNB-19 CNS): > 100 µM | GI50 (SNB-75 CNS): > 100 µM | TGI (SNB-75 CNS): > 100 µM | GI50 (SR leukemia): 7.41 µM | TGI (SR leukemia): > 100 µM | GI50 (SW-620 colon): 3.68 µM | TGI (SW-620 colon): > 100 µM | GI50 (T-47D breast): 4.15 µM | TGI (T-47D breast): > 100 µM | GI50 (TK-10 renal): 6.65 µM | TGI (TK-10 renal): > 100 µM | GI50 (U251 CNS): 4.41 µM | TGI (U251 CNS): > 100 µM | GI50 (UACC-257 melanoma): 6.08 µM | TGI (UACC-257 melanoma): > 100 µM | GI50 (UACC-62 melanoma): 2.45 µM | TGI (UACC-62 melanoma): 13.8 µM | GI50 (UO-31 renal): 1.47 µM | TGI (UO-31 renal): 8.83 µM
